Results from patent publication US4942154A, “Steroidal glycolipids as host resistance stimulators against viral infection” (priority 1987, dated 1990).

What was measured:
Pseudomonas aeruginosa = Pseudomonas aeruginosa in vivo protection study in cyclophosphamide-treated mice; set-up: species or system CF1 female mice; settings: for LD50 Actual: PA, CY +
Description: (§1) Groups of 15-20 CF1 female mice (Charles River Breeding, Cambridge, Mass.) weighing 22-28 gm were injected intraperitoneally (i.p.) with cyclophosphamide (Cytoxan; CY) at 250 mg per kg body weight. One to two hours later they were typically injected again with the test material by the route specified. Four days later, the mice were divided into groups of five, each of which were injected i.p. with a different dilution of a suspension of Pseudomonas aeruginosa (Immunotype 1). The number of survivors was determined periodically and an estimate was made of the number of CFU of Pseudomonas organisms necessary to cause 50% lethality by the cumulative method of L. J. Reed and H. Muench (Am. J. Hygiene 27 (1938) 493-497). A protective index (P.I.) was defined as the LD50 for the mice receiving cyclophosphamide and the test compound divided by the LD50 for the mice receiving cyclophosphamide alone. All control mice were injected with aqueous vehicle in the same route and schedule as the test animals.
(§2) MATERIALS. All compounds for dosing were suspended in a sterile medium referred to as "aqueous vehicle" which contains 0.9% sodium chloride, 0.5% carboxymethyl cellulose, 0.4% Tween 80, and 0.9% benzyl alcohol unless otherwise stated. Test materials were evaluated via subcutaneous (s.c.), i.p., intramuscular (i.m.), orally (p.o.). and intravenous (i.v.) routes of administration. […]
(§3) INFECTION OF ANIMALS. All bacteria were inoculated i.p. to induce infection in the in vivo experiments. Candida albicans, however, was administrated i.v. Bacteria cultures were harvested in the log phase, washed with phosphate buffered saline (PBS, and resuspended in PBS containing 10% glycerol for freezing at -70° C. in 1 ml aliquots. The number of […] (cfu's) was determined before and after freezing. Frozen cultures were routinely thawed and diluted in sterile PBS just prior to inoculation. Viable cell counts were routinely done on thawed cultures the day of challenge to determine the number of cfu's. Candida albicans was stored in distilled water at room temperature. Viable cell counts were determined the day of testing.
(§4) The testing and results of 6-(5-cholesten-3β-yloxy)hexyl-1-thio-β-D-mannopyranoside (Example 2) against various organisms is shown in Table 2.

[1] = system: Mycobacterium aviumintracellulare; settings: AIDS patients; cited from earlier work
[2] = system: AIDS / AIDS-related complex (ARC); settings: human, in vivo; cited from earlier work
[3] = in vivo; cited from earlier work
[4] = cited from earlier work; for adverse effects, toxicity, tolerability: clinical
HIV = settings: cited from earlier work
Staphylococcus aureus = assay: In vivo protection from Staphylococcus aureus infection in cyclophosphamide-treated mice; set-up: species or system CF1 female mice; settings: SA, CY +
Description: as §1
MATERIALS. All compounds for dosing were suspended in a sterile medium referred to as "aqueous vehicle" which contains 0.9% sodium chloride, 0.5% carboxymethyl cellulose, 0.4% Tween 80, and 0.9% benzyl alcohol unless otherwise stated. Test materials were evaluated via subcutaneous (s.c.), i.p., intramuscular (i.m.), orally (p.o.). and intravenous (i.v.) routes of administration. The initial test dose was 40 mg per kg per mouse, with each active compound subsequently titrated below this level.
as §3, §4

Candida albicans = assay: In vivo protection from Candida albicans infection in cyclophosphamide-treated mice; set-up: species or system CF1 female mice; settings: CA, CY +
Description: as §1, §2
as §3, with “All bacteria were inoculated i.p. to induce infection in the in vivo experiments.” left out, “testing. […]” for “testing.”

Klebsiella pheumoniae = assay: In vivo protection from Klebsiella infection in cyclophosphamide-treated mice; set-up: species or system CF1 female mice; settings: KP; CY +; 40 mg/kg
Description: as §1, §2

[5] = system: Herpes Simplex Virus-1 (HSV1); assay: Antiviral experiment in mice infected IP with Herpes Simplex Virus-1; assay type: in vivo, ICR mice; settings: for Average Day of Death, Pre Treatment: HSV1 day 5; for Average Day of Death, Post Treatment: HSV1 prior to treatment
Description: An antiviral experiment was conducted to compare treatment with 6-(5-Cholesten-3β-yloxy)hexyl 1-thio-β-D-mannopyranoside (Example 2) in mice infected IP with Herpes Simplex Virus-1 (HSV1) immediately before (post treatment) or after 5 days of treatment (pretreatment).
Ten mice (ICR, 20 gm, mixed sexes) were pretreated by SC injection of a 0.1 mL suspension of test compound twice a day for 4 days. On day 5, the mice were injected IP with 0.5 mL solution of HSV1 (Schloser, 10-5). The post treatment group was infected with HSV1 prior to administration of test compound. Day of death from time of infection with HSV1 was recorded for each mouse and average day of death per treatment group was calculated.

[6] = system: HIV reverse transcriptase; settings: cited from earlier work
[7] = system: reverse transcriptase in several retroviruses; settings: in vitro; cited from earlier work
[8] = system: AIDS-related Kaposi's sarcoma; settings: cited from earlier work

Compound: 6-(20S-Amino-pregn-5-en-3β-yloxy)hexyl 1-thio-β-D-mannopyranoside [Example 14]
- Protective Index (log) (Pseudomonas aeruginosa; Table 3, Pseudomonas aeruginosa, cyclophosphamide-treated mice, dose not given): 4.37 log

Compound: CO[C@H]1/C=C/O[C@@]2(C)Oc3c(C)c(O)c4c(c3C2=O)C2=NC3(CCN(CC(C)C)CC3)NC2=C(NC(=O)/C(C)=C\C=C\[C@H](C)[C@H](O)[C@@H](C)[C@@H](O)[C@@H](C)[C@H](OC(C)=O)[C@@H]1C)C4=O [Ansamycin, rifabutin]
- efficacy in opportunistic infection [1]: some efficacy

Compound: Cc1cn([C@H]2C[C@H](N=[N+]=[N-])[C@@H](CO)O2)c(=O)[nH]c1=O [Azidothymidine, 3'-azido-3'-deoxythymidine]
- clinical effect in AIDS / ARC patients [2]: First drug to show promise in prolonging lives of patients with AIDS or AIDS-related complex (ARC)
- central nervous system penetration [3]: effectively penetrates central nervous system

Compound: CC(C)(N1CC1C#N)N1CC1C(N)=O (stereo not shown) [Azimexon]
- clinical effect in AIDS / ARC patients [2]: improvements in symptoms and immune function in patients with ARC but not AIDS
- adverse effects, toxicity, tolerability [4]: only toxic effect was mild hemolysis

Compound: CC(C)(S)[C@@H](N)C(=O)O [D-Penicillamine, 3-mercapto-D-valine]
- effect on HIV infectivity, growth or reproduction (HIV): Inhibits HIV reproduction in humans
- clinical effect in AIDS / ARC patients [2]: suppressed the virus
- T cell levels ([4]; 13 AIDS patients with perpetually swollen glands): temporarily depressed T cell levels

Compound: CC(C)CCC[C@@H](C)[C@H]1CC[C@H]2[C@@H]3CC=C4C[C@@H](OCCCCCCS[C@@H]5O[C@H](CO)[C@@H](O)[C@H](O)[C@@H]5O)CC[C@]4(C)[C@H]3CC[C@]12C [Example 2, 6-(5-Cholesten-3β-yloxy)hexyl 1-thio-β-D-mannopyranoside]
- LD50 Actual (Pseudomonas aeruginosa; 10 mg/kg): 3.2 × 10^4 CFU
- LD50 Actual (Pseudomonas aeruginosa; 20 mg/kg): 3.2 × 10^5 CFU
- LD50 Actual (Pseudomonas aeruginosa; 40 mg/kg): 1.22 × 10^6 CFU
- LD50 Actual (Pseudomonas aeruginosa; 80 mg/kg): 2.59 × 10^6 CFU
- LD50 Actual (Staphylococcus aureus; 5 mg/kg): 3.38 × 10^5 CFU
- LD50 Actual (Staphylococcus aureus; 10 mg/kg): 1.04 × 10^6 CFU
- LD50 Actual (Staphylococcus aureus; 20 mg/kg): 2.38 × 10^6 CFU
- LD50 Actual (Staphylococcus aureus; 40 mg/kg): 1.58 × 10^7 CFU
- LD50 Actual (Candida albicans; 10 mg/kg): 3.68 × 10^4 CFU
- LD50 Actual (Candida albicans; 20 mg/kg): 5.2 × 10^4 CFU
- LD50 Actual (Candida albicans; 40 mg/kg): 7.88 × 10^4 CFU
- LD50 Actual (Klebsiella pheumoniae): 4.73 × 10^7 CFU
- P.I. (log) (Klebsiella pheumoniae): 1.12 log
- Average Day of Death, Pre Treatment ([5]; 0.8 mg/kg SC twice a day for 4 days, P 0.797): 8.6 days
- Average Day of Death, Post Treatment ([5]; 0.8 mg/kg SC twice a day): 9.1 days
- Average Day of Death, Pre Treatment ([5]; 3.1 mg/kg SC twice a day for 4 days, P 0.348): 7.1 days
- Average Day of Death, Post Treatment ([5]; 3.1 mg/kg SC twice a day): 6.3 days
- Average Day of Death, Pre Treatment ([5]; 12.5 mg/kg SC twice a day for 4 days, P 0.725): 8.0 days
- Average Day of Death, Post Treatment ([5]; 12.5 mg/kg SC twice a day): 7.5 days
- Average Day of Death, Pre Treatment ([5]; 50 mg/kg SC twice a day for 4 days, P 0.003): 11.0 days
- Average Day of Death, Post Treatment ([5]; 50 mg/kg SC twice a day): 6.4 days
- protection from fatal viral infection over placebo ([5]; 50 mg/kg twice a day for four days, by day of death): statistically enhanced protection from fatal viral infection over placebo treated animals
- protection, pretreated over post treatment group ([5]; pretreated mice versus post treatment group): statistically enhanced protection over the post treatment group

Compound: O=C(O)P(=O)(O)O [Foscarnet, trisodium phosphonoformate]
- HIV reverse transcriptase inhibition [6]: Inhibits HIV reverse transcriptase activity in vitro at levels pharmacologically acceptable in vivo
- adverse effects, toxicity, tolerability [4]: serious side effects

Compound: CC(=O)Nc1ccc(C(=O)O)cc1.CC(=O)Nc1ccc(C(=O)O)cc1.CC(=O)Nc1ccc(C(=O)O)cc1.CC(O)CN(C)C.CC(O)CN(C)C.CC(O)CN(C)C.O=c1[nH]cnc2c1ncn2[C@@H]1O[C@H](CO)[C@@H](O)[C@H]1O [Inosine pranobex, p-Acetamidobenzoic acid salt of (1-dimethylamino-2-propanol:inosinate complex 3:3:1 molar ratio)]
- clinical effect in AIDS / ARC patients [2]: improve immune function in ARC patients

Compound: NC(=O)c1ncn([C@@H]2O[C@H](CO)[C@@H](O)[C@H]2O)n1 [Ribavirin, 1-β-D-ribofuranosyl-1,2,4-triazole-3-carboxamide]
- clinical effect in AIDS / ARC patients [2]: inhibited viral replication and improved immune function in AIDS patients

Compound: Cc1ccc(C(=O)Nc2ccc(S(=O)(=O)O)c3cc(S(=O)(=O)O)cc(S(=O)(=O)O)c23)cc1NC(=O)c1cccc(NC(=O)Nc2cccc(C(=O)Nc3cc(C(=O)Nc4ccc(S(=O)(=O)O)c5cc(S(=O)(=O)O)cc(S(=O)(=O)O)c45)ccc3C)c2)c1 [Suramin]
- HIV reverse transcriptase inhibition [6]: Potent inhibitor of HIV reverse transcriptase
- clinical effect in AIDS / ARC patients [2]: little or no evidence of clinical improvement or immunologic recovery

Compound: ammonium 21-tungsto-9-antimoniate [HPA-23]
- reverse transcriptase inhibition in retroviruses [7]: Inhibits reverse transcriptase in several retroviruses in vitro
- effect on HIV infectivity, growth or reproduction (HIV): some tendency to check the growth of HIV
- clinical effect in AIDS / ARC patients [2]: no therapeutic benefit has been documented in AIDS patients

Compound: α-Interferon
- effect on HIV infectivity, growth or reproduction (HIV): Checks the growth of HIV in vitro
- tumor regression [8]: induced tumor regression in some AIDS-related Kaposi's sarcoma cases
